Patent US8215314B2, “Photochemical tissue bonding” (The General Hospital Corporation, priority 2000, dated 2012)
“Also recorded” adds a separate entry of the source.

Legend:
[1] = tested on: collagen gel implant on rat latissimus dorsi muscle flap; test: Adherence of collagen-based esophagus implant to host muscle flap after PTB, ex vivo; conditions: for adherence of collagen implant on muscle flap: 0.1% RB, 514 nm
Description: An ex vivo experimental system was developed to investigate the effect of PTB on the bonding of an engineered, collagen-based, esophagus implant to host muscle flap tissue without the need for silicon tubing.
FIG. 14 provides an overview of the experimental methods. Esophageal keratinocytes were seeded on uncontracted collagen gel (ICN Biomedicals) for about one week until confluence was reached. A 1×1 cm piece of seeded collagen gel was removed (implant) from the culture dish and a suture loop was laced through at its edge. An equivalently-sized section of rat latissimus dorsi muscle flap was secured onto a flat plastic surface with sutures. Rose bengal (RB) at 0.1% (w/v), a photosensitizer having an absorption maximum and absorption coefficient of 550 nm and 33,000 dm^3/mo/cm at 514 nm, respectively, was applied to the collagen side of the implant and the surface of the muscle flap and incubated for about two minutes. The esophagus implant and the muscle flap were approximated with the dye-treated surfaces facing each other by gently pressing over the esophagus implants without damaging the keratinocyte layer. Excess dye was removed by aspiration and blotting. […]
Following irradiation, the adherence of the collagen-based esophageal implant to the host muscle flap was tested for the 50 J/cm^2 sample, 100 J/cm^2 sample, and the three controls, using a tensiometer (Chartillon) coupled to a force transducer (DFA2, Ametek). The adherence (N/cm^2; N=force applied, cm^2=area of collagen implant) of the collagen implant on the muscle flap was determined from the force-deflection curve, generated by plotting the amount of peeling force applied to the collagen implant to the force plate displacement level of the force transducer. It was observe that the mean adherence measurements determined for the negative, RB, and laser controls were 0.05, 0.06, and 0.07 N/cm^2, respectively (FIG. 15). In contrast, the adherence measurements determined for the 50 and 100 J/cm^2 composite samples were 0.15 and 0.13 N/cm^2, respectively (FIG. 15).

bovine achilles tendons = test: PTB of ruptured bovine achilles tendons in vitro, ultimate stress and stiffness; conditions: for Mean change in stiffness % (95% CI) / Mean change in ultimate stress % (95% CI): relative to healthy tendon
Description: To test the ability of PTB to quickly and effectively bond ruptured tendons, an in vitro model utilizing bovine tendons was developed. The use of bovine models in wound healing is well known by those skilled in the art. The similarities between bovine wound healing and that of humans enables one to extrapolate the therapeutic results obtained in a bovine model system to a therapeutic result in humans.
Fresh bovine achilles tendons were obtained and stored at […] until use. The tendon was cut into dumbbell-shaped 5 cm strips with the central 3 cm strip at an approximate cross-sectional area of 1 mm by 1 mm, and were irrigated constantly with phosphate buffered saline (PBS) to prevent desiccation.
Rupture of the tendon was induced by weakening the central 1 cm of the tendon with a surgical blade and mechanically pulling it apart. A solution of Rose Bengal at various concentrations (0.1, 0.5 and 1.0% weight per volume in PBS) was applied to the ends of the ruptured tendons for two minutes, after which the ruptured ends were approximated and the excess dye was removed.
The ruptured ends of the tendon were crossed over each other with an overlap of approximately 1 cm before being wrapped by several layers of tissue paper. The tissue wrapped tendon was rolled and pressed in order to approximate the ruptured ends and remove the excess dye. The tissue paper was carefully removed before the tendon was placed between two glass slides that were then clipped together.
The center of the approximated tendon was irradiated with an argon laser (514 nm), having a spot size of 1 cm in diameter, which was transmitted through an optic fiber. The laser was applied with an irradiance of 0.5, 1.0, or 1.5 W/cm^2, while the fluence of laser energy applied was 125, 250, 500, or 750 J/cm^2. The exposure time ranged from 1 min and 23 seconds to 25 minutes.
Control tendons were ruptured in the same manner, however treatments consisted of application of Rose Bengal and approximation of the tendon ends without laser irradation, approximation of the tendon ends with laser irradiation but no exposure to rose bengal, and approximation of the ends with no further treatment.
To test the effectiveness of the photochemical tissue bonding, immediately after photochemical tissue bonding, the tendon strips were attached to the fixture of a tensiometer, which was coupled to a force transducer (FIG. 17). The tendon was held at a straight and vertical position, and cyclic loading of the tendon was conducted by stretching the tendon for a magnitude of 0.5 mm for 6 cycles. The tendon was brought back to a zero deflection position before being pulled to failure at a constant speed of 100 mm/min. The peak force needed to rupture the tendon was recorded, and a typical force-deflection curve was obtained (FIG. 18). The ultimate stress and stiffness (peak force for tendon rupture normalized by the cross-sectional area, and slope of the linear region of the force-deflection curve, respectively) were calculated from the force-deflection curve.
Healthy tendons were also placed in the tensiometer, and were pulled to the point of failure. Following failure, they were treated with photochemical tissue bonding at 500 J/cm^2 fluence and again pulled to failure to study the percentage of recovery of mechanical properties. Immediately after the photochemical tissue bonding, the ultimate stress and the stiffness returned to approximately 59.66% and 52.75% of the healthy tendon, respectively (Table 1).

[2] = argon laser 514 nm and Rose Bengal
[3] = higher Rose Bengal concentrations (0.0, 0.1, 0.5, 1.0% w/v in PBS)

## O=C([O-])c1c(Cl)c(Cl)c(Cl)c(Cl)c1-c1c2cc(I)c(=O)c(I)c-2oc2c(I)c([O-])c(I)cc12.[Na+].[Na+] [Rose Bengal]
[1]; 0.25 W/cm^2, 50 J/cm^2
  adherence of collagen implant on muscle flap: 0.15 N/cm^2
[1]; 0.25 W/cm^2, 100 J/cm^2
  adherence of collagen implant on muscle flap: 0.13 N/cm^2
[1]; RB control: 0.1% RB treated, nonirradiated
  mean adherence of collagen implant on muscle flap: 0.06 N/cm^2
Bovine achilles tendons; 1.0% Rose Bengal
  dehydration of the tendon: dehydration of the tendon was noticed
Bovine achilles tendons; Dye control (dye, no laser)
  Mean change in stiffness % (95% CI): 20.65 (10.16, 31.14) %
  Mean change in ultimate stress % (95% CI): 24.18 (6.57, 41.79) %
Bovine achilles tendons; Laser + Dye, 500 J/cm^2
  Mean change in stiffness % (95% CI): 52.75 (24.05, 81.45) %
  Mean change in ultimate stress % (95% CI): 59.66 (8.71, 110.61) %
Bovine achilles tendons; [2]
  stiffness of ruptured tendon vs controls: significantly increased; also recorded: significant increase
  ultimate stress of ruptured tendon vs controls: significantly increased; also recorded: significant increase
Bovine achilles tendons; [3]
  stiffness of ruptured tendon: significant increase
  ultimate stress of ruptured tendon: significant increase
